{"source": "patent US20220340564A1", "about": "“ANTIBACTERIAL COMPOUNDS” (Janssen Sciences Ireland Unlimited Company, priority 2019, published 2022)", "data": [{"test_system": "Mycobacterium tuberculosis strain EH4.0 expressing green-fluorescent protein (GFP)", "test": "microbe, parasite or virus in culture", "assay_type": "cell-based", "conditions": "168 h, read-out: pIC50 (converted)", "units": {"IC50": "nM"}, "values": [{"compound": "COC1=NN(c2ccc(CNC(=O)c3c(C(F)(F)F)nc4n3CCCC4)cc2F)CCN1S(=O)(=O)C(F)(F)F", "note": "[Compound 112]", "IC50": 17.4}, {"compound": "CCc1nc2ccc(OC)cn2c1C(=O)NCc1ccc(N2CCN(S(=O)(=O)C(F)(F)F)C(OC)=N2)c(F)c1", "note": "[Compound 48]", "IC50": 1.58}, {"compound": "CCc1nc2nc3c(cn2c1C(=O)NCc1ccc(N2CCN(S(=O)(=O)C(F)(F)F)C(C)=N2)cc1)CCOC3", "note": "[Compound 217]", "IC50": 14.1}, {"compound": "Cc1cc(F)c2nc(C(F)(F)F)c(C(=O)NCc3cnc(N4CCN(S(=O)(=O)C(F)(F)F)C=N4)c(F)c3)n2c1", "note": "[Compound 184]", "IC50": 31.6}, {"compound": "CCc1nc2ccc(Cl)cn2c1C(=O)NCc1ccc(N2CCN(S(=O)(=O)C(F)(F)F)C=N2)cc1OC", "note": "[Compound 22]", "IC50": 398}, {"compound": "CCc1nc2ccc(Cl)cn2c1C(=O)NCc1ccc(N2CCN(c3nccs3)C=N2)cc1", "note": "[Compound 76]", "IC50": 13.5}, {"compound": "CC1=NN(c2ccc(CNC(=O)c3c(C(F)(F)F)nc4ccccn34)cc2)CCN1S(=O)(=O)C(F)(F)F", "note": "[Compound 214]", "IC50": 13.5}, {"compound": "CCc1nc2ncc(Cl)cn2c1C(=O)NCc1ccc(N2CCN(S(=O)(=O)C(F)(F)F)C=N2)c(F)c1", "note": "[Compound 146]", "IC50": 3.8}, {"compound": "CCc1nc2cc(Cl)c(C)cn2c1C(=O)NCc1ccc(N2CCN(S(=O)(=O)C(F)(F)F)C(OC)=N2)c(F)c1", "note": "[Compound 209]", "IC50": 11.2}, {"compound": "O=C(NCc1ccc(N2CCN(S(=O)(=O)C(F)(F)F)C=N2)cc1)c1c(C2CC2)nc2ncc(Cl)cn12", "note": "[Compound 7]", "IC50": 63.1}, {"compound": "Cc1nc2sc(Cl)cn2c1C(=O)NCc1ccc(N2CCN(S(=O)(=O)C(F)(F)F)C=N2)c(F)c1", "note": "[Compound 133]", "IC50": 7.59}, {"compound": "CCc1nc2cc(F)c(Cl)cn2c1C(=O)NCc1ccc(N2CCNC=N2)c(F)c1", "note": "[Compound 202]", "IC50": 389}, {"compound": "CCc1nc2sc(C)cn2c1C(=O)NCc1ccc(N2CCN(S(=O)(=O)C(F)(F)F)C=N2)c(F)c1", "note": "[Compound 163]", "IC50": 0.316}, {"compound": "CCc1nc2n(c1C(=O)NCc1ccc(N3CCN(S(=O)(=O)CCOC)C=N3)cc1)CCCC2", "note": "[Compound 58]", "IC50": 251}, {"compound": "CCc1nc2ncc(COC)cn2c1C(=O)NCc1ccc(N2CCN(S(=O)(=O)C(F)(F)F)C=N2)cc1", "note": "[Compound 33]", "IC50": 25.1}, {"compound": "O=C(NCc1ccc(N2CCN(S(=O)(=O)C(F)(F)F)C=N2)cc1)c1c(C(F)F)nc2n1CCCC2", "note": "[Compound 104]", "IC50": 28.2}, {"compound": "CCc1nc2nc(N3CCCC3)c(Cl)cn2c1C(=O)NCc1ccc(N2CCN(S(=O)(=O)C(F)(F)F)C=N2)c(F)c1", "note": "[Compound 82]", "IC50": "≥ 501"}, {"compound": "CCc1nc2sc(Cl)cn2c1C(=O)NCc1ccc(N2CCN(S(=O)(=O)C(F)(F)F)C=N2)c(F)c1", "note": "[Compound 135]", "IC50": 7.24}, {"compound": "COC1=NN(c2ccc(CNC(=O)c3c(C(F)F)nc4n3CCCC4)cc2)CCN1S(=O)(=O)C(F)(F)F", "note": "[Compound 109]", "IC50": 20}, {"compound": "CCc1nc2cc(C)c(Cl)cn2c1C(=O)NCc1ccc(N2CCN(S(=O)(=O)C(F)(F)F)C(OC)=N2)cc1", "note": "[Compound 108]", "IC50": 20.4}, {"compound": "CCc1nc2c(Cl)c(OC)ccn2c1C(=O)NCc1ccc(N2CCN(S(=O)(=O)C(F)(F)F)C=N2)cc1", "note": "[Compound 39]", "IC50": 79.4}, {"compound": "CCc1nc2cc3c(cn2c1C(=O)NCc1ccc(N2CCN(S(=O)(=O)C(F)(F)F)C=N2)c(F)c1)OCCN3C", "note": "[Compound 191]", "IC50": 38}, {"compound": "CCc1nc2ccc(Cl)cn2c1C(=O)NCc1ccc(N2CCN(S(=O)(=O)C(F)(F)F)C(CCO)=N2)cc1", "note": "[Compound 40]", "IC50": 63.1}, {"compound": "CCc1nc2ncc(Cl)cn2c1C(=O)NCc1cnc(N2CCN(S(=O)(=O)C(F)(F)F)C=N2)c(F)c1", "note": "[Compound 168]", "IC50": 38.9}, {"compound": "CCc1nc2nc(OCc3ccccc3)c(F)cn2c1C(=O)NCc1ccc(N2CCN(S(=O)(=O)C(F)(F)F)C=N2)c(F)c1", "note": "[Compound 189]", "IC50": "≥ 501"}, {"compound": "CCc1nc2nc(C)c(Cl)cn2c1C(=O)NCc1ccc(N2CCN(S(=O)(=O)C(F)(F)F)C=N2)c(F)c1", "note": "[Compound 155]", "IC50": 1.62}, {"compound": "CCC1=NN(c2ccc(CNC(=O)c3c(CC)nc4ccc(Cl)cn34)cc2)CCN1S(=O)(=O)C(F)(F)F", "note": "[Compound 2]", "IC50": 15.8}, {"compound": "CCc1nc2nc(OC)c(F)cn2c1C(=O)NCc1ccc(N2CCN(S(=O)(=O)C(F)(F)F)C=N2)c(F)c1", "note": "[Compound 179]", "IC50": 126}, {"compound": "CCc1nc2cc3c(cn2c1C(=O)NCc1ccc(N2CCN(S(=O)(=O)C(F)(F)F)C=N2)c(F)c1)OCO3", "note": "[Compound 134]", "IC50": 7.59}, {"compound": "CCc1nc2cc(Cl)c(OC)cn2c1C(=O)NCc1ccc(N2CCN(S(=O)(=O)C(F)(F)F)C(OC)=N2)c(F)c1", "note": "[Compound 49]", "IC50": 23.4}, {"compound": "CCc1nc2ccc(Cl)cn2c1C(=O)NCc1ccc(N2CCN(S(=O)(=O)C(F)(F)F)C(CN(C)C)=N2)cc1", "note": "[Compound 74]", "IC50": 6.76}, {"compound": "CCc1nc2ccc(Cl)cn2c1C(=O)NCc1ccc(N2CCN(S(=O)(=O)CCOC)C=N2)cc1", "note": "[Compound 19]", "IC50": 39.8}, {"compound": "CCc1nc2ccc(Cl)cn2c1C(=O)NCc1ccc(N2CCN(C(C)=O)C=N2)cc1", "note": "[Compound 18]", "IC50": 15.8}, {"compound": "CCc1nc2ncc(OC)cn2c1C(=O)NCc1ccc(N2CCN(S(=O)(=O)C(F)(F)F)C(OC)=N2)c(F)c1", "note": "[Compound 50]", "IC50": 1.07}, {"compound": "CCc1nc2ccc(Cl)cn2c1C(=O)NCc1ccc(N2CCN(S(=O)(=O)C(F)(F)F)C(CCOC)=N2)cc1", "note": "[Compound 55]", "IC50": 25.7}, {"compound": "CCc1nc2ccc(Cl)cn2c1C(=O)NCc1ccc(N2CCN(S(=O)(=O)CC(C)C)C=N2)cc1", "note": "[Compound 17]", "IC50": 20}, {"compound": "CCc1nc2ncc(Cl)cn2c1C(=O)NCc1ccc(N2CCN(S(=O)(=O)C(F)(F)F)C(CCO)=N2)cc1", "note": "[Compound 41]", "IC50": 50.1}, {"compound": "CCc1nc2ccc(Cl)cn2c1C(=O)NCc1ccc(N2CCNC(OC)=N2)cc1", "note": "[Compound 96]", "IC50": 36.3}, {"compound": "COC1=NN(c2ccc(CNC(=O)c3c(C(F)F)nc4n3CCCC4)cc2F)CCN1S(=O)(=O)C(F)(F)F", "note": "[Compound 137]", "IC50": 6.17}, {"compound": "CCc1nc2cc(F)c(Cl)cn2c1C(=O)NCc1ccc(N2CCN(S(=O)(=O)C(F)(F)F)C(OC)=N2)c(F)c1", "note": "[Compound 141]", "IC50": 4.9}, {"compound": "CCc1nc2cc3c(cn2c1C(=O)NCc1ccc(N2CCN(S(=O)(=O)C(F)(F)F)C=N2)c(F)c1)OCC3", "note": "[Compound 131]", "IC50": 8.71}, {"compound": "COC1=NN(c2ccc(CNC(=O)c3c(C(F)F)nc4ccc(Cl)cn34)cc2F)CCN1S(=O)(=O)C(F)(F)F", "note": "[Compound 206]", "IC50": 2.45}, {"compound": "CCc1nc2ccc(Cl)cn2c1C(=O)NCc1ccc(N2CCN(C(=O)C(F)(F)F)C=N2)cc1", "note": "[Compound 66]", "IC50": 251}, {"compound": "Cc1cn2c(C(=O)NCc3ccc(N4CCN(S(=O)(=O)C(F)(F)F)C=N4)c(F)c3)c(C)nc2s1", "note": "[Compound 153]", "IC50": 1.78}, {"compound": "CCOc1cn2c(CC)c(C(=O)NCc3ccc(N4CCN(S(=O)(=O)C(F)(F)F)C=N4)c(F)c3)nc2nc1N1CCCC1", "note": "[Compound 81]", "IC50": "≥ 501"}, {"compound": "CCc1nc2cc(Cl)c(Cl)cn2c1C(=O)NCc1ccc(N2CCN(S(=O)(=O)C(F)(F)F)C=N2)c(F)c1", "note": "[Compound 118]", "IC50": 13.8}, {"compound": "CCc1nc2nc3c(cn2c1C(=O)NCc1ccc(N2CCN(S(=O)(=O)C(F)(F)F)C=N2)c(F)c1)CCCC3", "note": "[Compound 119]", "IC50": 13.5}, {"compound": "CCc1nc2cc3c(cn2c1C(=O)NCc1ccc(N2CCN(S(=O)(=O)C(F)(F)F)C=N2)c(F)c1)OCCO3", "note": "[Compound 100]", "IC50": 31.6}, {"compound": "O=C(NCc1ccc(N2CCNC=N2)c(F)c1)c1c(C(F)(F)F)nc2ccccn12", "note": "[Compound 192]", "IC50": "> 500"}, {"compound": "COC1=NN(c2ccc(CNC(=O)c3c(C(F)(F)F)nc4ccc(Cl)cn34)cc2F)CCN1S(=O)(=O)C(F)(F)F", "note": "[Compound 117]", "IC50": 14.8}]}]}
